The values below come from publication PMC10837484 (Clinical and Translational Science, 2024).

Data set [1] is described as follows: Dog PK/PD study: LYS006 in blood and plasma. The class given is in vivo, male beagle dogs.
A further data set in a line: in vivo. The conditions noted are these: male, Wistar, rat, 3 mg/kg.
A short description of data set [2]: First-in-human study: safety and tolerability. The class given is in vivo.
Data set [3] can be described thus: First-in-human study: LYS006 concentrations in plasma and blood. The class given is in vivo. The conditions noted are these: for concentration at 24 h: blood level, 24 h timepoint.
The conditions of data set [4]: cited from earlier work.
Data set [5] has as its target T1, LTA4H (Homo sapiens, UniProt P09960).
T1 sequence (P09960 1-611): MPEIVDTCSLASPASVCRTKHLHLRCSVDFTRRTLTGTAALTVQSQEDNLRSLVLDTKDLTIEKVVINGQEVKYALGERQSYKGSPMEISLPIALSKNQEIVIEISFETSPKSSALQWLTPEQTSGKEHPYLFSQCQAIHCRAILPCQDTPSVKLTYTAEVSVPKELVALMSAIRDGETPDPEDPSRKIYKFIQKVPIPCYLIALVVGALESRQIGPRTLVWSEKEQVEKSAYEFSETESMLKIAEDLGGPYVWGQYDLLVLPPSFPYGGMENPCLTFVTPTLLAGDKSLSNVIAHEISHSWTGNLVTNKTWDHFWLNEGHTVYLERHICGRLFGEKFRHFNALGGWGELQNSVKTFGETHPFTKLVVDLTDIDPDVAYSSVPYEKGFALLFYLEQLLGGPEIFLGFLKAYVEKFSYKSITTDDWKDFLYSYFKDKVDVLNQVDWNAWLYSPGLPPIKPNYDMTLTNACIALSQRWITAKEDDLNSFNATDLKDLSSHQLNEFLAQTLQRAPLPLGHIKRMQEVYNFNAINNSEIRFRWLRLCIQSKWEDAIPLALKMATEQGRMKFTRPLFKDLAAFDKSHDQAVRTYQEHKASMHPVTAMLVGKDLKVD
As to conditions: patients with asthma; cited from earlier work.

The target of data set [6] is T1, LTA4H. The conditions noted are these: cited from earlier work.
Data set [7] has as its system LTA4H. As to conditions: cited from earlier work.
For data set [8] the following is noted: cited from earlier work. This is another data set of the same source.
Where [9] appears, read: 0.5 mg/kg p.o. q.d., after fifth dose.
Setting [10] is: SAD part, LYS006 treated participants.

As for `N[C@@H](CC(=O)O)Cn1nnc(-c2ccc(Oc3ncc(Cl)cc3F)cc2)n1` [LYS006], in [1] (setting [9]), the peak blood concentration is given as 55 ng/mL and the peak plasma concentration stood at 5.5 ng/mL. Moreover, in data set [1] (3 mg/kg p.o., first dose, 1 h), the peak blood level is 71 ng/mL and the peak plasma level is recorded as 36 ng/mL. The molecule also gave a concentration at 24 h in data set [1] (male, beagle, in vivo, po, 0.5 mg/kg, plasma Ctrough, 0.5 mg/kg p.o., first dose) of roughly 3 ng/mL. Moreover, in the data set “in vivo”, the concentration at 4 h was greater than 1000 ng/mL. In [2] (FE cohorts, 10 mg, N = 12), the “AE severity: Mild” value is given as 8 (66.6) n (%), the “AE severity: Moderate” value is reported as 0 (0) n (%), the “AE severity: Severe” value is on record as 0 (0) n (%) and the “AEs leading to discontinuation” value is given as 0 (0) n (%). For the same molecule, in data set [2] (FE cohorts, 10 mg, N = 12), the “Abdominal discomfort or pain” value is reported as 2 (16.7) n (%), the Amylase increase is 0 (0) n (%), the Back pain is 0 (0) n (%) and the “Blood CPK elevation” value is 0 (0) n (%). Also, in data set [2] (FE cohorts, 10 mg, N = 12), the Breast pain is 0 (0) n (%), the Deaths is listed as 0 (0) n (%), the Diarrhea was 0 (0) n (%) and the Dizziness is 0 (0) n (%). In data set [2] (FE cohorts, 10 mg, N = 12), the Dry skin was 2 (16.7) n (%), the Feeling cold is on record as 2 (16.7) n (%), the Headache is recorded as 1 (8.3) n (%) and the Lipase elevation is reported as 0 (0) n (%). Further, in data set [2] (FE cohorts, 10 mg, N = 12), the Nausea was 0 (0) n (%), the Pruritus is on record as 0 (0) n (%), the SAEs is listed as 0 (0) n (%) and the “Study drug-related AEs” value was 0 (0) n (%). Moreover, the Viral respiratory infection in [2] (FE cohorts, 10 mg, N = 12) is listed as 3 (25) n (%). For the same molecule, in data set [2] (FE part, 10 mg), the Feeling cold worked out at 16.7%, the abdominal pain was 16.7%, the dry skin stood at 16.7% and the “viral upper respiratory tract infection” value is given as 25.0%. For the same molecule, the “participants with at least one AE” value in [2] (FE part, 10 mg fasted or fed, 12 patients) turned out to be 66.7%. For the same molecule, in [2] (MAD cohorts, all doses, N = 30), the “AE severity: Mild” value is 22 (73.3) n (%), the “AE severity: Moderate” value is 4 (13.3) n (%), the “AE severity: Severe” value is 4 (13.3) n (%) and the “AEs leading to discontinuation” value was 0 (0) n (%). In data set [2] (MAD cohorts, all doses, N = 30), the “Abdominal discomfort or pain” value is 2 (6.7) n (%), the Amylase increase was 2 (6.7) n (%), the Back pain was 2 (6.7) n (%) and the “Blood CPK elevation” value was 5 (16.7) n (%). In data set [2] (MAD cohorts, all doses, N = 30), the Breast pain is recorded as 0 (0) n (%), the Deaths is on record as 0 (0) n (%), the Diarrhea is recorded as 1 (3.3) n (%) and the Dizziness is 2 (6.7) n (%). Further, in data set [2] (MAD cohorts, all doses, N = 30), the Dry skin was 0 (0) n (%), the Feeling cold was 0 (0) n (%), the Headache is listed as 8 (26.7) n (%) and the Lipase elevation was 3 (10) n (%). Further, in data set [2] (MAD cohorts, all doses, N = 30), the Nausea is 2 (6.7) n (%), the Pruritus is given as 0 (0) n (%), the SAEs is on record as 0 (0) n (%) and the “Study drug-related AEs” value was 5 (16.7) n (%). Moreover, in data set [2] (MAD cohorts, all doses, N = 30), the “Subjects with at least one AE” value was 23 (76.7) n (%) and the Viral respiratory infection is 2 (6.7) n (%). In addition, the “participants with AEs” value in data set [2] (MAD part, 30 LYS006-treated participants) worked out at 76.7%. Besides, the “AEs of severe intensity (grade 3)” value in data set [2] (MAD part, LYS006-treated participants) was found to be 13.3%. Further, in data set [2] (MAD part, LYS006 group), the Headache is given as 26.7%, the Lipase elevation is 10% and the “creatine phosphokinase (CPK) elevation” value is 16.7%. Also, in [2] (MAD, LYS006 group, transient), the “number of AEs of severe intensity related to CPK elevations” value was “two” and the “number of lipase elevations of severe intensity (grade 3)” value is reported as “Two”. Besides, in data set [2] (SAD cohorts, all doses, N = 51), the “AE severity: Mild” value is 18 (35.3) n (%), the “AE severity: Moderate” value is listed as 2 (3.9) n (%), the “AE severity: Severe” value is listed as 1 (2) n (%) and the “AEs leading to discontinuation” value is listed as 0 (0) n (%). Also, in [2] (SAD cohorts, all doses, N = 51), the “Abdominal discomfort or pain” value was 4 (7.8) n (%), the Amylase increase is on record as 0 (0) n (%), the Back pain is listed as 1 (2) n (%) and the “Blood CPK elevation” value is recorded as 0 (0) n (%). Moreover, in data set [2] (SAD cohorts, all doses, N = 51), the Breast pain is 0 (0) n (%), the Deaths is recorded as 0 (0) n (%), the Diarrhea is listed as 2 (3.9) n (%) and the Dizziness was 1 (2) n (%). Moreover, in data set [2] (SAD cohorts, all doses, N = 51), the Dry skin is 0 (0) n (%), the Feeling cold is reported as 0 (0) n (%), the Headache was 3 (5.9) n (%) and the Lipase elevation was 2 (3.9) n (%). Besides, in [2] (SAD cohorts, all doses, N = 51), the Nausea is given as 0 (0) n (%), the Pruritus was 2 (3.9) n (%), the SAEs is 0 (0) n (%) and the “Study drug-related AEs” value is given as 4 (7.8) n (%). In data set [2] (SAD cohorts, all doses, N = 51), the “Subjects with at least one AE” value is 19 (37.3) n (%) and the Viral respiratory infection is given as 0 (0) n (%). Moreover, the “participants with AEs” value in data set [2] (SAD part, 51 LYS006 treated participants) is listed as 37.3%. Also, in data set [2] (setting [10]), the “Abdominal discomfort or pain” value amounted to 7.8%, the Diarrhea is 3.9% and the Headache was 5.9%. Besides, the tolerability entry in data set [2] (SAD, FE and MAD parts, all study participants) is recorded as “well‐tolerated”. Moreover, the dose-limiting toxicity result in data set [2] (healthy participants, up to 80 mg b.i.d.) is given as “No dose‐limiting toxicity”. Further, the “lipase increase, only AE of severe intensity (grade 3) in SAD” value in data set [2] (one participant, single dose 5 mg, day 8 after dosing, no clinical sign) was no less than 2 × ULN. Moreover, in data set [3] (MAD, 15 mg q.d.), the trough blood level is reported as ~ 35 ng/mL and the trough plasma level is ~ 2 ng/mL. In addition, in data set [3] (MAD, after last dose on day 12), the “blood exposure after end-of-treatment” value was 30 to 40 ng/mL and the “plasma level after end-of-treatment” value is 1 to 2 ng/mL. The same molecule gave a concentration at 24 h in data set [3] (both, human, in vivo, 5 mg, SAD) of 29.4 ng/mL. In addition, the concentration at 24 h in data set [3] (both, human, in vivo, 70 mg, SAD) is 37.1 ng/mL. The molecule also returned a concentration at 12 h in data set [3] (both, human, in vivo, blood concentration, SAD, 12 h after administration) of 30 to 50 ng/mL. In addition, the “time to maximum plasma concentration (Tmax)” value in data set [4] (clinical PK) was 1 to 2 h. For the same molecule, in data set [4] (human), the “parent compound excreted into the urine” value is 90%.
In the case of `CC(=O)NC1C[C@H]2CC[C@@H](C1)N2Cc1ccc(Oc2nc3ncccc3s2)cc1` (stereo partly shown) [JNJ‐40929837], the “reduction in sputum LTB4” value at LTA4H [5] was 92%. The “reduction of LTB4 levels” value at LTA4H [6] (over a 24 h period at doses of 100 mg) is reported as “greater than 95%”. The “potency in in vitro cellular assays” value in the data set with LTA4H [7] is “highly potent”.
With `O=C(O)CCCN1CCC[C@H]1COc1ccc(Oc2ccc(Cl)cc2)cc1` [DG‐051], on LTA4H [6] (after 7 days of once daily treatment), the “LTB4 reduction in ex vivo stimulated blood” value is listed as “up to 70%”. Moreover, the “in vitro potency relative to other clinical LTA4H inhibitors” value with LTA4H [7] was “lowest potency”.
On to `CC(c1cc2ccccc2s1)N(O)C(N)=O` (stereo not shown) [zileuton], for which the “effect on liver transaminases” value in [8] is on record as “elevates liver transaminases”.
Take `O=C(O)c1ccc(CN2C[C@@H]3C[C@H]2CN3Cc2ccc(Oc3ccc(-c4ncco4)cc3)cc2)cc1` [acebilustat]: at LTA4H [6] (highest tested dose 200 mg q.d.), the “maximum PD effect, reduction of LTB4 at peak in ex vivo stimulated blood” value is listed as 89%.
